From patent US10624897B2, “Chlorobenzene substituted azaaryl compounds” (TAIPEI MEDICAL UNIVERSITY, priority 2015, dated 2020)
“And” between values parts separate entries of the source, which are not always exact repeats. Identical values can stand only once.

Key:
DCAMKL1 = biological target: T1, DCAMKL1 (Homo sapiens, UniProt O15075); test: Kinase binding assay (Kd)
T1 construct: made in house; host or cells: E. coli BL21-derived host (T7 phage) or HEK-293
Procedure: (§1) Kinase assays. For most assays, kinase-tagged T7 phage strains were prepared in an E. coli host derived from the BL21 strain. E. coli were grown to log-phase and infected with T7 phage and incubated with shaking at 32° C. until lysis. The lysates were centrifuged and filtered to remove cell debris. The remaining kinases were produced in HEK-293 cells and subsequently tagged with DNA for qPCR detection. […] The liganded beads were blocked with excess biotin and washed with blocking buffer (SeaBlock (Pierce), 1% BSA, 0.05% Tween 20, 1 mM DTT) to remove unbound ligand and to reduce non-specific binding. […] All reactions were performed in polystyrene 96-well plates in a final volume of 0.135 ml. […] The kinase concentration in the eluates was measured by qPCR.
(§2) An 11-point 3-fold serial dilution of each test compound was prepared in 100% DMSO at 100× final test concentration and subsequently diluted to 1× in the assay (final DMSO concentration=1%). Most Kds were determined using a compound top concentration=30,000 nM.
(§3) Binding constants (Kds) were calculated with a standard dose-response curve using the Hill equation: […]
(§4) The Hill Slope was set to −1. Curves were fitted using a non-linear least square fit with the Levenberg-Marquardt algorithm.

IGF1R = biological target: T2, IGF1R (Homo sapiens, UniProt P08069); test: Kinase binding assay (Kd)
T2 construct: made in house; host or cells: E. coli BL21-derived host (T7 phage) for most kinases, HEK-293 for the rest
Procedure: as §1, §2, §3, §4

CDK3 = biological target: T3, CDK3 (Homo sapiens, UniProt Q00526); test: Kinase binding assay (Kd)
T3 construct: made in house; host or cells: E. coli BL21-derived host (T7 phage) or HEK-293
Procedure: as §1, §2, §3, §4

MKNK1 = biological target: T4, MKNK1 (Homo sapiens, UniProt Q9BUB5); test: Kinase binding assay (Kd)
T4 construct: made in house; host or cells: E. coli BL21-derived host (T7 phage) for most kinases, HEK-293 for the rest
Procedure: as §1, §2, §3, §4

PIM2 = biological target: T5, PIM2 (Homo sapiens, UniProt Q9P1W9); test: Kinase binding assay (Kd)
T5 construct: made in house; host or cells: E. coli BL21-derived host (T7 phage) for most kinases, HEK-293 for the rest
Procedure: as §1, §2, §3, §4

FGFR2 = biological target: T6, FGFR2 (Homo sapiens, UniProt P21802); test: Kinase binding assay (Kd)
T6 construct: made in house; host or cells: E. coli BL21-derived host (T7 phage) or HEK-293
T6 sequence (P21802 22-821): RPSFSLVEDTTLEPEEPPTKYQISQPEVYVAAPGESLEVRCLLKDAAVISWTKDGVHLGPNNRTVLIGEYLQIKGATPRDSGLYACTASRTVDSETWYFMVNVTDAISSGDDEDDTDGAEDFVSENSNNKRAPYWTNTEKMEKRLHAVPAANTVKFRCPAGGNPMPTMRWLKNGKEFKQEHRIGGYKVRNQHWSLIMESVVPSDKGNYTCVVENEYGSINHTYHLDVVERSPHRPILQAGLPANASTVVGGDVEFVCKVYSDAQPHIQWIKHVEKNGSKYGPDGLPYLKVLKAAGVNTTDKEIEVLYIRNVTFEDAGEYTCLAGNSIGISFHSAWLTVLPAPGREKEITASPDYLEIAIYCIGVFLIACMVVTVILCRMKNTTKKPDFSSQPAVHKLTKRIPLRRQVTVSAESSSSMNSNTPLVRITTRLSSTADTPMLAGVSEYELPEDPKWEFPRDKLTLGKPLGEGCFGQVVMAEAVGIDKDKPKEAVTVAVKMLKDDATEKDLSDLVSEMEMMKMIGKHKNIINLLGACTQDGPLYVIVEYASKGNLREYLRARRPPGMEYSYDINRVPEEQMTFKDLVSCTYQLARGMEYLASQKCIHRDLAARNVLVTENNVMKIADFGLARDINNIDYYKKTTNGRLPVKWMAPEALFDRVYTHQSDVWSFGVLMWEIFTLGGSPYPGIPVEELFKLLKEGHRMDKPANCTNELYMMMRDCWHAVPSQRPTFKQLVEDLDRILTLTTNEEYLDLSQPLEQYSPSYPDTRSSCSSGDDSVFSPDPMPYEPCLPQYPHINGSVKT
Procedure: as §1, §2, §3, §4

RET = biological target: T7, RET (Homo sapiens, UniProt P07949); test: Kinase binding assay (Kd)
T7 construct: made in house; host or cells: E. coli BL21-derived host (T7 phage) or HEK-293
Procedure: as §1, §2, §3, §4

MEK2 = biological target: T8, MEK2 (Homo sapiens, UniProt P36507); test: Kinase binding assay (Kd)
T8 construct: made in house; host or cells: E. coli BL21-derived host (T7 phage) for most kinases, HEK-293 for the rest
Procedure: as §1, §2, §3, §4

GSK3B = biological target: T9, GSK3B (Homo sapiens, UniProt P49841); test: Kinase binding assay (Kd)
T9 construct: made in house; host or cells: E. coli BL21-derived host (T7 phage) for most kinases, HEK-293 for the rest
T9 sequence (P49841 whole entry): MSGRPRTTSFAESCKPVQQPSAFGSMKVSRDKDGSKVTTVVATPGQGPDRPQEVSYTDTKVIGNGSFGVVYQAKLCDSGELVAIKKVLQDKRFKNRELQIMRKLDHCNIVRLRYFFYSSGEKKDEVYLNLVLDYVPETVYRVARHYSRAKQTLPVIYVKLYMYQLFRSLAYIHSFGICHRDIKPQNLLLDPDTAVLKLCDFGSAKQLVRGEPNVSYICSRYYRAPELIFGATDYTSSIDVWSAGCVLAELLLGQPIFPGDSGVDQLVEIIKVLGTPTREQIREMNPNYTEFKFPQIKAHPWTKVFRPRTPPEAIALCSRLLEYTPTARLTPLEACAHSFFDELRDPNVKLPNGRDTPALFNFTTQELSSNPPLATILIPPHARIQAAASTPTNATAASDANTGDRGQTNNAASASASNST
Procedure: as §1, §2, §3, §4

VEGFR2 = biological target: T10, VEGFR2 (Homo sapiens, UniProt P35968); test: Kinase binding assay (Kd)
T10 construct: made in house; host or cells: E. coli BL21-derived host (T7 phage) or HEK-293
Procedure: as §1, §2, §3, §4

PDPK1 = biological target: T11, PDPK1 (Homo sapiens, UniProt O15530); test: Kinase binding assay (Kd)
T11 construct: made in house; host or cells: E. coli BL21-derived host (T7 phage) for most kinases, HEK-293 for the rest
Procedure: as §1, §2, §3, §4

TYK2 = biological target: T12, TYK2 (Homo sapiens, UniProt P29597); test: Kinase binding assay (Kd)
T12 construct: made in house; host or cells: E. coli BL21-derived host (T7 phage) or HEK-293
Procedure: as §1, §2, §3, §4

PLK1 = biological target: T13, PLK1 (Homo sapiens, UniProt P53350); test: Kinase binding assay (Kd)
T13 construct: made in house; host or cells: E. coli BL21-derived host (T7 phage) or HEK-293
Procedure: as §1, §2, §3, §4

ERK1 = biological target: T14, ERK1 (Homo sapiens, UniProt P27361); test: Kinase binding assay (Kd)
T14 construct: made in house; host or cells: E. coli BL21-derived host (T7 phage) for most kinases, HEK-293 for the rest
Procedure: as §1, §2, §3, §4

BMPR2 = biological target: T15, BMPR2 (Homo sapiens, UniProt Q13873); test: Kinase binding assay (Kd)
T15 construct: made in house; host or cells: E. coli BL21-derived host (T7 phage) or HEK-293
Procedure: as §1, §2, §3, §4

IKK-beta = biological target: T16, IKK-beta (Homo sapiens, UniProt O14920); test: Kinase binding assay (Kd)
T16 construct: made in house; host or cells: E. coli BL21-derived host (T7 phage) for most kinases, HEK-293 for the rest
Procedure: as §1, §2, §3, §4

AKT1 = biological target: T17, AKT1 (Homo sapiens, UniProt P31749); test: Kinase binding assay (Kd)
T17 construct: made in house; host or cells: E. coli BL21-derived host (T7 phage) or HEK-293
Procedure: as §1, §2, §3, §4

INSR = biological target: T18, INSR (Homo sapiens, UniProt P06213); test: Kinase binding assay (Kd)
T18 construct: made in house; host or cells: E. coli BL21-derived host (T7 phage) for most kinases, HEK-293 for the rest
Procedure: as §1, §2, §3, §4

EGFR = biological target: T19, EGFR (Homo sapiens, UniProt P00533); test: Kinase binding assay (Kd)
T19 construct: made in house; host or cells: E. coli BL21-derived host (T7 phage) or HEK-293
Procedure: as §1, §2, §3, §4

EPHA2 = biological target: T20, EPHA2 (Homo sapiens, UniProt P29317); test: Kinase binding assay (Kd)
T20 construct: made in house; host or cells: E. coli BL21-derived host (T7 phage) for most kinases, HEK-293 for the rest
Procedure: as §1, §2, §3, §4

ZAP70 = biological target: T21, ZAP70 (Homo sapiens, UniProt P43403); test: Kinase binding assay (Kd)
T21 construct: made in house; host or cells: E. coli BL21-derived host (T7 phage) or HEK-293
Procedure: as §1, §2, §3, §4

FGFR1 = biological target: T22, FGFR1 (Homo sapiens, UniProt P11362); test: Kinase binding assay (Kd)
T22 construct: made in house; host or cells: E. coli BL21-derived host (T7 phage) or HEK-293
Procedure: as §1, §2, §3, §4

PIK3CA = biological target: T23, PIK3CA (Homo sapiens, UniProt P42336); test: Kinase binding assay (Kd)
T23 construct: made in house; host or cells: E. coli BL21-derived host (T7 phage) for most kinases, HEK-293 for the rest
T23 sequence (P42336 whole entry): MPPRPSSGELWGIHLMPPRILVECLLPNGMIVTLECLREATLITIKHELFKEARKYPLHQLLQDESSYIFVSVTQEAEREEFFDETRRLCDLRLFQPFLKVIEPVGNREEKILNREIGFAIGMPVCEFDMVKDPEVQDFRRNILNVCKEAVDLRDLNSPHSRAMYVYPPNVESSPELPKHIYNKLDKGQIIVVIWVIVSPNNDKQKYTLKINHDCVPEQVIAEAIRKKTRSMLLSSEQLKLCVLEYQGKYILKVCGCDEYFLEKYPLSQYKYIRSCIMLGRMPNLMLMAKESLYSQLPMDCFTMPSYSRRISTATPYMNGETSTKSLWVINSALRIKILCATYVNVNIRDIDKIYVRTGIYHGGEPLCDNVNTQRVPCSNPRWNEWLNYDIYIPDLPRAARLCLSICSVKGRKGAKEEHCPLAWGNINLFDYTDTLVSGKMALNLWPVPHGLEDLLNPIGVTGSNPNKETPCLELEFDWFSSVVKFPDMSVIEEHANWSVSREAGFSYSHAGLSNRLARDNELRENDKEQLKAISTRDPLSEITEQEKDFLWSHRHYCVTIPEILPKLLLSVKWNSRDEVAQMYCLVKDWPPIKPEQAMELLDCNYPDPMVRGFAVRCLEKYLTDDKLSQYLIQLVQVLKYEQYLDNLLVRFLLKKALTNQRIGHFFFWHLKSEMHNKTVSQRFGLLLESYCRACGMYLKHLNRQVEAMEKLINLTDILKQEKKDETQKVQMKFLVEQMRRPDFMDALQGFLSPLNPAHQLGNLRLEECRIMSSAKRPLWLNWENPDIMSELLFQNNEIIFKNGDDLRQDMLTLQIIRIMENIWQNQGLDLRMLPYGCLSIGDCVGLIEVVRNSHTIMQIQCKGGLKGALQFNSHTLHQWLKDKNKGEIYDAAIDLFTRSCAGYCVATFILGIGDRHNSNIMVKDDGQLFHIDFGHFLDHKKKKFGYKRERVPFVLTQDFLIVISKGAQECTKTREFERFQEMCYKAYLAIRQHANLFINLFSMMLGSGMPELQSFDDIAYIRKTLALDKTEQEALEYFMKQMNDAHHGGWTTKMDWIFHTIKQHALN
Procedure: as §1, §2, §3, §4

MAPKAPK2 = biological target: T24, MAPKAPK2 (Homo sapiens, UniProt P49137); test: Kinase binding assay (Kd)
T24 construct: made in house; host or cells: E. coli BL21-derived host (T7 phage) for most kinases, HEK-293 for the rest
Procedure: as §1, §2, §3, §4

FLT3 = biological target: T25, FLT3 (Homo sapiens, UniProt P36888); test: Kinase binding assay (Kd)
T25 construct: made in house; host or cells: E. coli BL21-derived host (T7 phage) or HEK-293
Procedure: as §1, §2, §3, §4

ACVR1B = biological target: T26, ACVR1B (Homo sapiens, UniProt P36896); test: Kinase binding assay (Kd)
T26 construct: made in house; host or cells: E. coli BL21-derived host (T7 phage) or HEK-293
Procedure: as §1, §2, §3, §4

FGFR4 = biological target: T27, FGFR4 (Homo sapiens, UniProt P22455); test: Kinase binding assay (Kd)
T27 construct: made in house; host or cells: E. coli BL21-derived host (T7 phage) or HEK-293
Procedure: as §1, §2, §3, §4

TSSK1B = biological target: T28, TSSK1B (Homo sapiens, UniProt Q9BXA7); test: Kinase binding assay (Kd)
T28 construct: made in house; host or cells: E. coli BL21-derived host (T7 phage) or HEK-293
Procedure: as §1, §2, §3, §4

AXL = biological target: T29, AXL (Homo sapiens, UniProt P30530); test: Kinase binding assay (Kd)
T29 construct: made in house; host or cells: E. coli BL21-derived host (T7 phage) or HEK-293
T29 sequence (P30530 26-894): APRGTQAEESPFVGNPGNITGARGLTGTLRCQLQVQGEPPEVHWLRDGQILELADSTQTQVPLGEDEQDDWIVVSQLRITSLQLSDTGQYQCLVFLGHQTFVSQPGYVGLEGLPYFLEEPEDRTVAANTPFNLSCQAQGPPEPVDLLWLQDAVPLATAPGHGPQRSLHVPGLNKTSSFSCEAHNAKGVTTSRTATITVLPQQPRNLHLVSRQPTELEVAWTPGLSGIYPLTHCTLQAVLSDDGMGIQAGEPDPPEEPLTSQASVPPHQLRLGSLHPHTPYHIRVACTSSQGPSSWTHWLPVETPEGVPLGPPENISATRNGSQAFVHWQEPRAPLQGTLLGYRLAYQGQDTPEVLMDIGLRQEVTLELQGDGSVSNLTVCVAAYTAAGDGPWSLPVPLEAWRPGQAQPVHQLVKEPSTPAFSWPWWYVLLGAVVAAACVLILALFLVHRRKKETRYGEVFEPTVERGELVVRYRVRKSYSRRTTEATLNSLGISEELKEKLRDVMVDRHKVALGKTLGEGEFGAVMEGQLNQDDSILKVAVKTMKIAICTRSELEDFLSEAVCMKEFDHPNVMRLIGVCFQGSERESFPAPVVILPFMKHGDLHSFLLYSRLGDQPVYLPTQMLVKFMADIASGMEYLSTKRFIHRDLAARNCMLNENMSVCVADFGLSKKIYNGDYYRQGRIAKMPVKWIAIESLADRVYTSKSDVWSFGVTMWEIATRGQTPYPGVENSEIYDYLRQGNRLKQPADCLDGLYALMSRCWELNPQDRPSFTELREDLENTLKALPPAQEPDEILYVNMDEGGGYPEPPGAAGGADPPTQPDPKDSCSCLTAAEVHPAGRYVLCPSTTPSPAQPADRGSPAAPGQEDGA
Procedure: as §1, §2, §3, §4

CDK9 = biological target: T30, CDK9 (Homo sapiens, UniProt P50750); test: Kinase binding assay (Kd)
T30 construct: made in house; host or cells: E. coli BL21-derived host (T7 phage) or HEK-293
T30 sequence (P50750 whole entry): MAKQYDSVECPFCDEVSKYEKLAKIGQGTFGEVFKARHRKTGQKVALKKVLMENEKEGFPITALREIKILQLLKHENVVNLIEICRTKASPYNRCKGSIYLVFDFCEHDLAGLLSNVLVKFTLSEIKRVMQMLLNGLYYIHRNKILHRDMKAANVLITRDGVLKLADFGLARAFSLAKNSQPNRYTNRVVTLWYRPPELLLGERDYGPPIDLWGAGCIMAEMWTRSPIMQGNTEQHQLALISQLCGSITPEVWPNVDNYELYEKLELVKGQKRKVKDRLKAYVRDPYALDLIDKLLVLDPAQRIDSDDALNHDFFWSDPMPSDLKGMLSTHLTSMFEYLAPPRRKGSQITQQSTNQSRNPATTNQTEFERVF
Procedure: as §1, §2, §3, §4

FGFR3 = biological target: T31, FGFR3 (Homo sapiens, UniProt P22607); test: Kinase binding assay (Kd); settings: FGFR3 (wild-type)
T31 construct: made in house; host or cells: E. coli BL21-derived host (T7 phage) or HEK-293
T31 sequence (P22607 23-806): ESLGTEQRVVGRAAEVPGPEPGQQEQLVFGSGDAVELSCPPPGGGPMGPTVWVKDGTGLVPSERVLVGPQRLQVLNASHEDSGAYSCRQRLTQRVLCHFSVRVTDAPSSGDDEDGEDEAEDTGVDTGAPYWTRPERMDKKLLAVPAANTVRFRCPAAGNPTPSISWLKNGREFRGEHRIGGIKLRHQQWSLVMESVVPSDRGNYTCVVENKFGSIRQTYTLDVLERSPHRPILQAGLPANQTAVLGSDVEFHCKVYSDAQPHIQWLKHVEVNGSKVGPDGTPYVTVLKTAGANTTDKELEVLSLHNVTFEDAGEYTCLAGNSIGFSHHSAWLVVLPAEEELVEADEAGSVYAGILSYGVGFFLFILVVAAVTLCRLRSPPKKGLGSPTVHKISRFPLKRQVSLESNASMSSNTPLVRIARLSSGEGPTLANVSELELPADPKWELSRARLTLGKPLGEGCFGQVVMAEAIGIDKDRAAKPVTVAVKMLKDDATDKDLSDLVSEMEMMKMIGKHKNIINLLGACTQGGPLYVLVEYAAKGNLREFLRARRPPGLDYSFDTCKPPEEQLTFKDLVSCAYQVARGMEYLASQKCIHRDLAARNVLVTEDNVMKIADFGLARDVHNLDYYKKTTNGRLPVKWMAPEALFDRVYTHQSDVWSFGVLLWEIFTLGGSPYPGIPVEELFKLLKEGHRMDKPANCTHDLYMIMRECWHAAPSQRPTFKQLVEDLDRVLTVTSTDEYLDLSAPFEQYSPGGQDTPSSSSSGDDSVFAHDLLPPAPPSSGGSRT
Procedure: as §1, §2, §3, §4
The compound and assay method are similar to those mentioned in Example 45.

RT-112 cells = test: Cell cycle distribution by flow cytometry; type: cell-based; settings: 48 h to 72 h, FIG. 3A
[1] = system: RT-112, RT4 and T24 cells; test: MTT assay, bladder cancer cells with different FGFR3 status; type: cell-based; settings: 72 h, FIG. 1A
Procedure: Cell viability was assessed the MTT assay. […] Data are expressed as means±S.D. (***P<0.001 compares to control group).
BGJ-398, a known selective inhibitor of FGFR1 to FGFR3, was included as a reference compound. […] The major downstream pathways of FGFRs are MAPK, PI3K/AKT, and PLC-γ. RT-112 cells, which express FGFR3-TACC3, are reportedly unable to activate PLCγ due to a deletion of the last exon of FGFR3.

T1 sequence (O15075 whole entry): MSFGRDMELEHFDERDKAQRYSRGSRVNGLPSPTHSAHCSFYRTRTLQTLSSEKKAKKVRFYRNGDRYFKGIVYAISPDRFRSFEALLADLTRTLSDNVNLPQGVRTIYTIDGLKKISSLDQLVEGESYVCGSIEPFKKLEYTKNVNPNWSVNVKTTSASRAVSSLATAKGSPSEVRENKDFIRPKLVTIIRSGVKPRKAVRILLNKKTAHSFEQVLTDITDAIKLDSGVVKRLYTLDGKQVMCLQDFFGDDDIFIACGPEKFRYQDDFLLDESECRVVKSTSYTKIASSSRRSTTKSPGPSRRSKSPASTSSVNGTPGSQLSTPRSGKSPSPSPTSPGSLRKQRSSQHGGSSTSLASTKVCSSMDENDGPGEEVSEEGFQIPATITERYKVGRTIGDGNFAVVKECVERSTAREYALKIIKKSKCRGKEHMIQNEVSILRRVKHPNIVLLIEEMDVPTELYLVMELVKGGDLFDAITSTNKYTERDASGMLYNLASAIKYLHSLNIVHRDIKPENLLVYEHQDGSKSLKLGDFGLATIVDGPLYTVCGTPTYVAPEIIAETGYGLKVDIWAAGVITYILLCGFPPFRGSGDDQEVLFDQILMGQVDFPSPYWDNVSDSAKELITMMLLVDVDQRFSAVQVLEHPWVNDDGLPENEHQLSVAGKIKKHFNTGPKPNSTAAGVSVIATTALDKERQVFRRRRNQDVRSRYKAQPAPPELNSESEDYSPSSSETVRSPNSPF

## CCN1CCN(c2ccc(Nc3ncnc(N(C)C(=O)Nc4c(Cl)c(OC)c(Cl)c(OC)c4Cl)n3)cc2)CC1 [MPT0L145, 1-(4-((4-(4-ethylpiperazin-1-yl)phenyl)amino)-1,3,5-triazin-2-yl)-1-methyl-3-(2,4,6-trichloro-3,5-dimethoxyphenyl)urea]
DCAMKL1
  Kd: > 10 µM
IGF1R
  Kd: > 10 µM
CDK3
  Kd: > 10 µM
MKNK1
  Kd: > 10 µM
PIM2
  Kd: > 10 µM
FGFR2
  Kd: 0.67 µM
RET
  Kd: > 10 µM
MEK2
  Kd: > 10 µM
GSK3B
  Kd: > 10 µM
VEGFR2
  Kd: 3.1 µM
PDPK1
  Kd: > 10 µM
TYK2
  Kd: 0.66 µM
PLK1
  Kd: > 10 µM
ERK1
  Kd: > 10 µM
BMPR2
  Kd: > 10 µM
IKK-beta
  Kd: > 10 µM
AKT1
  Kd: > 10 µM
INSR
  Kd: > 10 µM
EGFR
  Kd: > 10 µM
EPHA2
  Kd: > 10 µM
ZAP70
  Kd: > 10 µM
FGFR1
  Kd: 0.13 µM
PIK3CA
  Kd: > 10 µM
MAPKAPK2
  Kd: > 10 µM
FLT3
  Kd: 1.3 µM
ACVR1B
  Kd: > 10 µM
FGFR4
  Kd: 7.5 µM
TSSK1B
  Kd: > 10 µM
AXL
  Kd: > 10 µM
CDK9
  Kd: > 10 µM
FGFR3
  Kd: 0.27 µM and 0.39 µM
RT-112 cells
  accumulation of the sub-G1 phase (apoptotic cell death): did not promote accumulation of the sub-G1 phase
[1]
  sensitivity of FGFR3-TACC3 fusion cells (RT-112, RT4) versus normal FGFR3 status (T24): more sensitive
